Tests used:
DU145 cells = test: ROS assay (H2DCFDA, flow cytometry); format: cell-based, human; conditions: 2 mM 2-DG 12 h, with or without 2 μM buforin IIb 6 h; combination compared with 2 μM buforin alone, p < 0.001
Experimental: Intracellular ROS level was measured by detecting the fluorescence intensity of the peroxide sensitive fluorescent probe H2DCFDA. Briefly, DU145 cells (1 × 10^5 cells/mL) were seeded into 24-well plates and treated with 2-DG (2 mM) for 12 h, then treated with or without buforin IIb (2 μM) for 6 h, followed by incubation with 10 μM H2DCFDA for 30 min in the dark. The fluorescence intensity was measured at 488 nm by flow cytometry to evaluate the production of ROS.

DU145 xenograft tumors = test: DU145 xenograft tumor experiment; format: in vivo, BALB/c nude mice; conditions: buforin IIb 5 mg/kg tail vein, 2-DG 400 mg/kg oral gavage, days 1, 2, 3, 6, 9; tumor weight on day 12 vs PBS; n = 5 per group
Excerpt: Male BALB/c nude mice (4-6 weeks old) were obtained from the Model Animal Research Center of Nanjing University. All of the animal experiments were approved by the Institutional Animal Care and Use Committee (IACUC) of the Nanjing Normal University and Jiangsu Association for Laboratory Animal Science. BALB/c nude mice were subcutaneously injected with 3 × 10^6 DU145 cells in the right axillary region. When the tumor volume reached 75 mm^3, nude mice were randomly divided into the following four groups (n = 5 per group): PBS, buforin IIb (5 mg/kg), 2-DG (400 mg/kg), and combination group (5 mg/kg buforin IIb + 400 mg/kg 2-DG). Buforin IIb was injected through the tail vein of mice and 2-DG was administered via oral gavage on days 1, 2, 3, 6, and 9. Body weight and tumor volume were measured three times a week. Mice were sacrificed by isoflurane inhalation followed by cervical dislocation. The tumors were excised and assessed. Tumor volume was calculated using the formula V = ab^2/2, where 'a' and 'b' are the tumor dimensions at the longest and widest points, respectively. On day 12, tumor tissues were collected and weighed. […] PCNA and TUNEL positive cells were quantified by measuring pixels in 10 consecutive fields at 40× magnification. Positive cells were scored manually.

mouse erythrocytes = test: Hemolytic activity assay; format: cell-based; conditions: mouse RBCs 4% (v/v), 30 min, 37 °C, absorbance 570 nm; different concentrations
Experimental: The hemolytic assay was conducted using mouse red blood cells (RBCs) as the method described previously. Briefly, erythrocytes were isolated by centrifugation at 1000× g for 10 min, washed three times with PBS, and resuspended at a final concentration of 4% (v/v). After incubating cells with 2-DG and buforin IIb alone or in combination at different concentrations for 30 min at 37 °C, the mixture was centrifuged at 1000× g for 5 min to obtain the supernatant. A volume of 100 μL of supernatant was removed to a new 96-well plate and the absorbance was measured at 570 nm. PBS and 0.1% Triton X-100 were used as agents for 0 and 100% hemolysis, respectively. The percentage of hemolysis was calculated as follows: (Asample − APBS)/(ATritonX-100 − APBS) × 100%, where A is the absorbance. Data are presented as the mean ± standard error of the mean (SEM) of at 4–6 independent experiments.

[1] = system: normal prostatic epithelial WPMY-1 cell line; test: CCK-8 cell viability assay, WPMY-1; format: cell-based
Experimental: Cells were seeded in 96-well plates at a density of 1 × 10^5 cells/mL in medium, and then treated with different concentrations of buforin IIb and 2-DG alone or in combination for 24 h. After treatment, 10 μL CCK-8 was added to each well, and the plates were incubated in the dark at 37 °C for 2 h. Absorbance at 450 nm was measured using a […]1 multifunction microplate reader. Each experiment was performed in triplicate, and cell viability was expressed as a percentage of the control. The drug-drug interactions between buforin IIb and 2-DG were evaluated using the combination index (CI) described by Chou and Talalay, and calculated using Compusyn software (Biosoft). CI values < 1, = 1 or > 1 indicated synergy, additivity, or antagonism, respectively.

**Q.** What does the source list for `O=CC[C@@H](O)[C@H](O)[C@H](O)CO` [2-DG, 2-Deoxy-D-glucose]?
**A.** ROS, H2DCFDA fluorescence intensity (DU145 cells): no effect on H2DCFDA fluorescence intensity; tumor growth inhibition rate (DU145 xenograft tumors): 39.53%; hemolytic activity (mouse erythrocytes): no hemolytic activity; cytotoxicity against WPMY-1 cells ([1]; 2 mM 2-DG and 2 μM buforin IIb alone or in combination): no significant cytotoxicity; inhibition of viability of WPMY-1 cells ([1]; 4 mM 2-DG and 4 μM buforin IIb alone or in combination): No significant inhibition of viability; effect on viability of WPMY-1 cells ([1]; all tested concentrations): no effect on the viability

Source: PMC7730206, “2-Deoxy-D-glucose Promotes Buforin IIb-Induced Cytotoxicity in Prostate Cancer DU145 Cells and Xenograft Tumors” (Molecules, 2020)
